Laboratory results from patent US20260199484A1, “PROTAC DEGRADERS OF MLLT1 AND/OR MLLT3” (DARK BLUE THERAPEUTICS LTD, priority 2024, published 2026).

Target: T1, MLLT1 (Homo sapiens, UniProt Q03111)
T1 sequence (Q03111 1-559): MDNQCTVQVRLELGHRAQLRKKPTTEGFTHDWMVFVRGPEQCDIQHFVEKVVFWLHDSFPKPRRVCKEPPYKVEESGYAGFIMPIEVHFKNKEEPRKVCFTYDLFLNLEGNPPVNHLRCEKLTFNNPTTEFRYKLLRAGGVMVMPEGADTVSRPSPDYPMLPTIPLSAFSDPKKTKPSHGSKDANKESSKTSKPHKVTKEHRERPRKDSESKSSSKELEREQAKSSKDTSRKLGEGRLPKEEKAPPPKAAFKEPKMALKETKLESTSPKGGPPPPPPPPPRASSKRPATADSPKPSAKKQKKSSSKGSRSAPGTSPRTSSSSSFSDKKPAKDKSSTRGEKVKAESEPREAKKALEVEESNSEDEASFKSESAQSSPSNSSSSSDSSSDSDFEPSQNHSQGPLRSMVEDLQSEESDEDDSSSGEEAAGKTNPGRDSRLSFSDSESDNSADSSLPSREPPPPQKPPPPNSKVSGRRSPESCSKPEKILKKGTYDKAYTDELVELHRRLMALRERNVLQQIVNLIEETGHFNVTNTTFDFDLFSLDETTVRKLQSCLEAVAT
Assay: MLLT1 degradation assay in MV4-11 cells (JESS, 24 h)
Format: cell-based
Set-up: endogenous in cells; host or cells: MV4-11 (ATCC CRL-9591)
Details: vs DMSO control
Procedure: MLLT1 degradation efficacy of compounds was tested in an automated chemiluminescent detection system (JESS, Cat #004-650). MV4-11 (#CRL-9591, ATCC) cells were seeded at a density of 1.2 million cells/well in a non-treated 6-well cell culture plate in 2.4 mL of complete medium (IMDM+10% FBS+1× Penicillin-Streptomycin). 10 mM DMSO stocks were prepared, and cells were treated with three concentrations of test compounds viz. 1000, 100 and 10 nM at a final DMSO concentration of 0.1% and incubated for 24 h at 37° C., 5% CO2. Post incubation, cells were centrifuged, washed with HBSS and lysed in 70 μL of RIPA buffer supplemented with Protease inhibitors (sc-24948; Santa Cruz). Subsequently, protein estimation was done using BCA protein assay kit (23225; Pierce). 4 ug protein lysate (4 uL of 1 ug/uL lysate) was loaded into each well of the JESS cartridge (SM-W001; Bio-techne) and the JESS run was performed using 1:900 dilution of anti-human MLLT1 antibody (14893; Cell signaling technology) and 1:1200 dilution of anti-human GAPDH antibody (2118; Cell signaling technology) with anti-rabbit secondary detection module (DM-001; Bio-Techne). Post run, data were analysed using “Compass for SW” software for chemiluminescent detection. The peak area for each band was used for the calculation of MLLT1 degradation with respect to DMSO control. Data is shown as “MLLT1% degradation”. • Category A: A≥75% degradation • Category B: 50%≤B<75% degradation • Category C: 25%≤C<50% degradation • Category D: D<25% degradation

| MLLT1% Degradation @ 0.01 μM | MLLT1% Degradation @ 0.1 μM | MLLT1% Degradation @ 1 μM | SMILES |
| --- | --- | --- | --- |
| C (Category C: 25%≤C<50% degradation) | C (Category C: 25%≤C<50% degradation) | A (Category A: A≥75% degradation) | Cc1nn(CCCCN2CCN(c3ccc4c(c3)C(=O)N(C3CCC(=O)NC3=O)C4=O)CC2)c2cc(C(=O)Nc3cc4[nH]c([C@@H]5CCCN5C)cc4cn3)ccc12 (stereo partly drawn) [Example 20, 1-(4-{4-[2-(2,6-dioxopiperidin-3-yl)-1,3-dioxoisoindol-5-yl]piperazin-1-yl}butyl)-3-methyl-N-{2-[(2S)-1-methylpyrrolidin-2-yl]-1H-pyrrolo[3,2-c]pyridin-6-yl}indazole-6-carboxamide] |
| D (Category D: D<25% degradation) | B (Category B: 50%≤B<75% degradation) | A (Category A: A≥75% degradation) | Cc1nn(CCCCCC#Cc2cccc(C(=O)NC3CCC(=O)NC3=O)c2F)c2cc(C(=O)Nc3cc4[nH]c([C@H]5CCCN5C)cc4cn3)ccc12 (stereo partly drawn) [Example 34, 1-(7-(3-((2,6-dioxopiperidin-3-yl)carbamoyl)-2-fluorophenyl)hept-6-yn-1-yl)-3-methyl-N-(2-((R)-1-methylpyrrolidin-2-yl)-1H-pyrrolo[3,2-c]pyridin-6-yl)-1H-indazole-6-carboxamide] |
| D (Category D: D<25% degradation) | B (Category B: 50%≤B<75% degradation) | A (Category A: A≥75% degradation) | Cc1nn(CCCCCCCC#Cc2cccc(N3CCC(=O)NC3=O)c2F)c2cc(C(=O)Nc3cc4[nH]c([C@H]5CCCN5C)cc4cn3)ccc12 [Example 63, (R)-1-(9-(3-(2,4-dioxotetrahydropyrimidin-1 (2H)-yl)-2-fluorophenyl)non-8-yn-1-yl)-3-methyl-N-(2-(1-methylpyrrolidin-2-yl)-1H-pyrrolo [3,2-c]pyridin-6-yl)-1H-indazole-6-carboxamide] |
| B (Category B: 50%≤B<75% degradation) | B (Category B: 50%≤B<75% degradation) | C (Category C: 25%≤C<50% degradation) | Cc1c2ccc(C(=O)Nc3cc4[nH]c([C@H]5CCCN5C)cc4cn3)cc2nn1CCCCCCCCNc1cccc2c1C(=O)N(C1CCC(=O)NC1=O)C2=O (stereo partly drawn) [Example 5, 2-(8-((2-(2,6-dioxopiperidin-3-yl)-1,3-dioxoisoindolin-4-yl)amino)octyl)-3-methyl-N-(2-((R)-1-methylpyrrolidin-2-yl)-1H-pyrrolo[3,2-c]pyridin-6-yl)-2H-indazole-6-carboxamide] |
| B (Category B: 50%≤B<75% degradation) | A (Category A: A≥75% degradation) | A (Category A: A≥75% degradation) | Cc1nn(CC2CCN(c3cccc4c3CN(C3CCC(=O)NC3=O)C4=O)CC2)c2cc(C(=O)Nc3cc4[nH]c([C@H]5CCCN5C)cc4cn3)ccc12 (stereo in doubt) [Example 108, 1-((1-(2-((rel-R)-2,6-dioxopiperidin-3-yl)-1-oxoisoindolin-4-yl)piperidin-4-yl)methyl)-3-methyl-N-(2-((R)-1-methylpyrrolidin-2-yl)-1H-pyrrolo[3,2-c]pyridin-6-yl)-1H-indazole-6-carboxamide] |
| C (Category C: 25%≤C<50% degradation) | B (Category B: 50%≤B<75% degradation) | A (Category A: A≥75% degradation) | Cc1nn(CCCCCCCC#Cc2cccc(C(=O)N[C@H]3CCC(=O)NC3=O)c2F)c2cc(C(=O)Nc3cc4[nH]c([C@H]5CCCN5C)cc4cn3)ccc12 [Example 51, 1-(9-(3-(((S)-2,6-dioxopiperidin-3-yl)carbamoyl)-2-fluorophenyl)non-8-yn-1-yl)-3-methyl-N-(2-((R)-1-methylpyrrolidin-2-yl)-1H-pyrrolo[3,2-c]pyridin-6-yl)-1H-indazole-6-carboxamide] |
| C (Category C: 25%≤C<50% degradation) | C (Category C: 25%≤C<50% degradation) | C (Category C: 25%≤C<50% degradation) | Cc1c(OCCCCCCn2nc(C)c3ccc(C(=O)Nc4cc5[nH]c([C@H]6CCCN6C)cc5cn4)cc32)cccc1N1CCC(=O)NC1=O [Example 10, 1-{6-[3-(2,4-dioxo-1,3-diazinan-1-yl)-2-methylphenoxy]hexyl}-3-methyl-N-{2-[(2R)-1-methylpyrrolidin-2-yl]-1H-pyrrolo[3,2-c]pyridin-6-yl}indazole-6-carboxamide] |
| C (Category C: 25%≤C<50% degradation) | D (Category D: D<25% degradation) | B (Category B: 50%≤B<75% degradation) | Cc1c(C#CCCCCCn2nc(C)c3ccc(C(=O)Nc4cc5[nH]c([C@H]6CCCN6C)cc5cn4)cc32)cccc1C(=O)NC1CCC(=O)NC1=O (stereo partly drawn) [Example 35, 1-(7-(3-((2,6-dioxopiperidin-3-yl)carbamoyl)-2-methylphenyl)hept-6-yn-1-yl)-3-methyl-N-(2-((R)-1-methylpyrrolidin-2-yl)-1H-pyrrolo[3,2-c]pyridin-6-yl)-1H-indazole-6-carboxamide] |
|  | C (Category C: 25%≤C<50% degradation) | C (Category C: 25%≤C<50% degradation) | Cc1nn(CCCC2CCN(c3ccc(C(=O)NC4CCC(=O)NC4=O)cc3F)CC2)c2cc(C(=O)Nc3cc4[nH]c([C@H]5CCCN5C)cc4cn3)ccc12 (stereo partly drawn) [Example 28, 1-(3-(1-(4-((2,6-dioxopiperidin-3-yl)carbamoyl)-2-fluorophenyl)piperidin-4-yl)propyl)-3-methyl-N-(2-((R)-1-methylpyrrolidin-2-yl)-1H-pyrrolo[3,2-c]pyridin-6-yl)-1H-indazole-6-carboxamide] |
| C (Category C: 25%≤C<50% degradation) | B (Category B: 50%≤B<75% degradation) | A (Category A: A≥75% degradation) | Cc1nn(CCCCCCCC#Cc2ccnc(C(=O)N[C@H]3CCC(=O)NC3=O)c2)c2cc(C(=O)Nc3cc4[nH]c([C@H]5CCCN5C)cc4cn3)ccc12 [Example 43, 1-(9-(2-(((S)-2,6-dioxopiperidin-3-yl)carbamoyl)pyridin-4-yl)non-8-yn-1-yl)-3-methyl-N-(2-((R)-1-methylpyrrolidin-2-yl)-1H-pyrrolo[3,2-c]pyridin-6-yl)-1H-indazole-6-carboxamide] |
| A (Category A: A≥75% degradation) | A (Category A: A≥75% degradation) | A (Category A: A≥75% degradation) | Cc1nn(CCOCCCCC#Cc2cccc3c2CN(C2CCC(=O)NC2=O)C3=O)c2cc(C(=O)Nc3cc4[nH]c([C@H]5CCCN5C)cc4cn3)ccc12 (stereo partly drawn) [Example 50, 1-(2-((6-(2-(2,6-dioxopiperidin-3-yl)-1-oxoisoindolin-4-yl)hex-5-yn-1-yl)oxy)ethyl)-3-methyl-N-(2-((R)-1-methylpyrrolidin-2-yl)-1H-pyrrolo[3,2-c]pyridin-6-yl)-1H-indazole-6-carboxamide] |
| D (Category D: D<25% degradation) | D (Category D: D<25% degradation) | B (Category B: 50%≤B<75% degradation) | Cc1nn(CCCCCCCCNc2cccc3c2C(=O)N(C2CCC(=O)NC2=O)C3=O)c2cc(C(=O)Nc3cc4[nH]c([C@@H]5CCCN5C)cc4cn3)ccc12 (stereo partly drawn) [Example 4, 1-(8-{[2-(2,6-dioxopiperidin-3-yl)-1,3-dioxoisoindol-4-yl]amino}octyl)-3-methyl-N-{2-[(2S)-1-methylpyrrolidin-2-yl]-1H-pyrrolo[3,2-c]pyridin-6-yl}indazole-6-carboxamide] |
| D (Category D: D<25% degradation) | C (Category C: 25%≤C<50% degradation) | A (Category A: A≥75% degradation) | Cc1c(OCCCCCCCCn2nc(C)c3ccc(C(=O)Nc4cc5[nH]c([C@H]6CCCN6C)cc5cn4)cc32)cccc1N1CCC(=O)NC1=O [Example 9, 1-{8-[3-(2,4-dioxo-1,3-diazinan-1-yl)-2-methylphenoxy]octyl}-3-methyl-N-{2-[(2R)-1-methylpyrrolidin-2-yl]-1H-pyrrolo[3,2-c]pyridin-6-yl}indazole-6-carboxamide] |
